Reference: patent US20120328713A1, “Articles of Manufacture with Improved Anti-microbial Properties” (priority 2009, published 2012)

Assays:
[1] = tested on: bacterial speck (Pseudomonas syringae pv. tomato); test: Field trial, foliar spray against bacterial speck in tomatoes (Example 18); format: in vivo, tomatoes (Lycopersicon esculentum); details: after three treatment sprays
[2] = tested on: bacterial canker (Clavibacter michiganensis pv. michiganensis); test: Field trial, foliar spray against bacterial canker in tomatoes (Example 19); format: in vivo, tomatoes (Lycopersicon esculentum); details: after three treatment sprays; full dose
Procedure: (§1) Silver (III) periodate was tested as a bactericidal foliar spray treatment against bacterial canker (Clavibacter michiganensis pv. michiganensis) in tomatoes (Lycopersicon esculentum).
(§2) See Example 18 for Preparation of Tomato Seed; Preparation of Field; Seeding; Plot Maintenance; Preparation of Spray Treatment Solutions and Inoculum; Spray Treatment Procedure; and Data Collection.

[3] = tested on: bacterial canker (Clavibacter michiganensis pv. michiganensis); test: Field trial, foliar spray against bacterial canker in tomatoes (Example 20); format: in vivo, tomatoes (Lycopersicon esculentum)
Procedure: as §1, §2

[4] = tested on: Pseudomonas aeruginosa biofilms; test: Log reduction and MBEC assays on biofilms; format: cell-based; details: 4 hours
[5] = Stability of partially dehydrated sodium diperiodatoargentate in the presence of saline; format: physicochemical; details: compared with the fully hydrated compound
Procedure: Fully hydrated sodium diperiodatoargentate was made, ground using a mortar and pestle, and spread in an even thin layer in a pre-heated (120° C.) non-reactive container (e.g. glass or ceramics). The thin layer was necessary to prevent areas of poor heat transfer. The container was then placed in an oven at 120° C. for 15 minutes. After 15 minutes, the sample was removed from the oven and transferred to a sealed container (glass vial), which was then stored in a dessicator in the dark at room temperature to prevent the material from adsorbing water.
Relative to the fully hydrated sodium diperiodatoargentate, the partially dehydrated sodium diperiodatoargentate is darker in color and is a much finer powder (which will be advantageous for incorporation into polymers).

[6] = tested on: Escherichia coli ATCC 25922; test: MBEC P&G assay in dilutions of human serum; format: cell-based
Procedure: (§3) The effects of silver (III) periodate and silver nitrate were tested in different dilutions of human serum (0.001%, 0.01%, 0.1%, 1%, 10%, 50%) using the MBECTM P&G assay against relevant clinical human pathogens Escherichia coli, Staphylococcus aureus (MRSA), and Candida albicans. The challenge time was 4 hours. The tested concentration range for the silver compounds was 500 to 7.8 ppm.

[7] = tested on: Staphylococcus aureus (MRSA) 456; test: MBEC P&G assay in dilutions of human serum; format: cell-based
Procedure: as §3

[8] = tested on: Candida albicans ATCC 28367; test: MBEC P&G assay in dilutions of human serum; format: cell-based; details: all concentrations of human serum
Procedure: as §3

[9] = tested on: Escherichia coli (ATCC 25922); test: MBEC P&G assay in dilutions of urine; format: cell-based
Procedure: (§4) The effects of silver (III) periodate and silver nitrate in different dilutions of urine (0.001%, 0.01%, 0.1%, 1%, 10%, 50%) using the MBEC™ P&G assay were tested against Escherichia coli (ATCC 25922)The challenge time was 4 hours. The tested concentration range for both silver compounds was 500 to 7.8 ppm.

[10] = tested on: Escherichia coli (ATCC 25922); test: MBEC P&G assay in dilutions of mucin; format: cell-based
Procedure: as §4, with “mucin (2.0%, 1.0%, 0.5%, 0.25%, 0.12%, 0.06%) were tested” for “urine (0.001%, 0.01%, 0.1%, 1%, 10%, 50%)”, “assay” for “assay were tested”

P. aeruginosa ATCC 27853 = test: Silver (III) periodate efficacy testing in the presence of Cl-, SO4 2-, and PO4 3-; format: cell-based; details: 30 minutes, 1.5-200 ppm
Procedure: Silver (III) periodate was tested for efficacy in water, 1% NaCl, 1% K2SO4, and 1% K2HPO4 solutions, and compared with silver nitrate. The test solutions were tested against P. aeruginosa ATCC 27853. The challenge time was 30 minutes. Silver (III) periodate and silver nitrate were tested at range of 1.5-200 ppm.

[11] = tested on: Escherichia coli (ATCC 25922); test: MBEC P&G assay in dilutions of feces; format: cell-based
Procedure: The challenge time was 4 hours. The tested concentration range for both silver compounds was 500 to 7.8 ppm.

Compound: oxysilver nitrate [reference compound]
- disease severity on foliage [1]: best at reducing disease severity on foliage
- disease severity on foliage [2]: best at reducing disease severity on foliage
- disease severity on foliage ([3]; after three treatment sprays, low and high dose): best at reducing disease severity on foliage
- disease severity on foliage ([3]; after two treatment sprays, high dose): best at reducing disease severity on foliage

Compound: sodium diperiodatoargentate
- kill of biofilms ([4]; 200 ppm, p<0.05): significantly higher kill than the fully hydrated sodium diperiodatoargentate
- kill of biofilms ([4]; all other concentrations (1.56 ppm to 200 ppm range)): no significant differences
- stability in the presence of saline [5]: same level of stability as the fully hydrated compound

Compound: O=[N+]([O-])[O-].[Ag+] [silver nitrate, reference compound]
- log reduction, trend with compound concentration ([6]; human serum 1% or 0.001%): no effect on the log reduction
- log reduction, trend with compound concentration ([6]; human serum 50%, 10%, and 0.1%): log reductions decreased significantly with a decrease in the concentration of silver nitrate
- log reduction compared with the other compound ([7]; 0.001% human serum, 500 ppm): higher log reduction only at 500 ppm with a two magnitude difference
- killing activity ([7]; 0.1% and 0.01% human serum): no significant killing activity
- log reduction, trend with compound concentration [8]: Log reductions decreased with a decrease in concentration of silver nitrate
- MBC cut-off point ([9]; 50.0% urine): 31.25 ppm
- MBC cut-off point ([9]; 100% urine): 62.5 ppm
- log reduction ([9]; 500 and 250 ppm, all tested concentrations of urine): approximately equal log reductions
- log reduction compared with the other compound ([9]; compound concentrations of 125 ppm and below): larger log reduction in the higher concentrations of urine
- log reduction compared with the other compound ([10]; mucin 0.5% and lower, higher compound concentrations): better log reductions
- log reduction, trend with compound concentration ([10]; regardless of the concentration of mucin): the lower the concentration of silver nitrate, the lower the log reduction was
- killing (P. aeruginosa ATCC 27853; in the presence of 1% NaCl or 1% K2HPO4): unable to kill at any of the tested concentrations
- killing (P. aeruginosa ATCC 27853; no salt and 1% K2SO4): effective at killing all the cells for the entire challenge range
- MBC, effective level ([11]; 1.56% feces): < 7.8 ppm
- MBC, effective level ([11]; 3.13% feces): < 7.8 ppm
- MBC, effective level ([11]; 6.25% feces): < 7.8 ppm
- MBC, effective level ([11]; 12.5% feces): 15.6 ppm
- MBC, effective level ([11]; 25% feces): 31.25 ppm
- MBC, effective level ([11]; 50% feces): 62.5 ppm
- MBEC effectiveness compared with silver(III) periodate ([11]; in the presence of feces): more effective than silver(III) periodate in higher concentrations of feces but less effective in lower concentrations
